From patent US12173018B2, “Penicillin-binding protein inhibitors” (priority 2018, dated 2024)
In brackets after ≈: the same amount, converted by molar mass. Like-named read-outs stand apart in the source and are kept apart here.

What was measured:
E. coli ATCC 25922 = test: Broth microdilution MIC, E. coli ATCC 25922; type: cell-based; details: Escherichia coli, ATCC25922; E. coli ATCC 25922, broth microdilution; read-out: MIC E. coli 25922
Summary of the method: (§1)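 Colonies from Mueller Hinton II agar were grown 3-5 hours at 37° C in cation-supplemented broth, adjusted by OD600, then added to 2-fold compound dilutions at 5×10^5 CFU/mL. After 16-20 hours at 37° C, MICs were scored visually.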

N. gonorrhoeae FA1090 = test: Liquid broth MIC, N. gonorrhoeae FA1090; type: cell-based; details: Neisseria gonorrhoeae; N. gonorrhoeae FA1090, liquid broth; read-out: Minimum Inhibitory Concentration, N. gonorrhoeae FA1090
Summary of the method: (§2)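 Broth microdilution, 2-fold compound series; start inoculum 5×10^5 CFU/mL (OD600-adjusted, GC broth pH 7.2, Kellogg's suppl.). 40-42 h, 36° C, 5% CO2. MIC = lowest conc., no visible growth.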

K. pneumoniae 848844 = test: microbe, parasite or virus in culture; type: cell-based, Klebsiella pneumoniae
Summary of the method: as §1

N. gonorrhoeae FA19 = test: Liquid broth MIC, N. gonorrhoeae FA19; type: cell-based; details: Neisseria gonorrhoeae; N. gonorrhoeae FA19, liquid broth; read-out: Minimum Inhibitory Concentration, N. gonorrhoeae FA19
Summary of the method: as §2

N. gonorrhoeae WHO F = test: Liquid broth MIC, N. gonorrhoeae WHO F; type: cell-based; details: Neisseria gonorrhoeae; N. gonorrhoeae WHO F, liquid broth; read-out: Minimum Inhibitory Concentration, N. gonorrhoeae WHO F
Summary of the method: as §2

E. coli PBP3 = E. coli PBP3 (Escherichia coli (strain K12), UniProt P0AD68); test: E. coli PBP3 Bocillin-FL fluorescence polarization competition binding assay
Sequence of E. coli PBP3 (P0AD68 whole entry): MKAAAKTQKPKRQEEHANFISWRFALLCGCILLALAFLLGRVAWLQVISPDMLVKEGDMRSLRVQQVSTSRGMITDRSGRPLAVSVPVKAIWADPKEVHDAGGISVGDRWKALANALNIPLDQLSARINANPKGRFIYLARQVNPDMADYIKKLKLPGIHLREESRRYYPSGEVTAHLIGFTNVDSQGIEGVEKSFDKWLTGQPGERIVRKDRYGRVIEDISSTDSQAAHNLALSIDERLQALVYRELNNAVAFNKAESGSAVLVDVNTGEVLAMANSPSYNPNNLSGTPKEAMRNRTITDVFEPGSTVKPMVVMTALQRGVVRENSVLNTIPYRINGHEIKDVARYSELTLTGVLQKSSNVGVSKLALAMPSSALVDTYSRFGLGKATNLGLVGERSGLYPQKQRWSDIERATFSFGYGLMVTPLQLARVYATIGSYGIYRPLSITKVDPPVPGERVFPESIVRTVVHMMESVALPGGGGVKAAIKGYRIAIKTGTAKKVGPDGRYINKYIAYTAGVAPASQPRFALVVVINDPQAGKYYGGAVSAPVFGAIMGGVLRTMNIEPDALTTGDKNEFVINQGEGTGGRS
Summary of the method: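 FP competition: 1.5 μM PBP, 0.1 μM Bocillin-FL, cpd 0–1000 μM; 50 mM Hepes pH 8.0/300 mM NaCl/5% glycerol. Read 490/520 nm immediately after Bocillin-FL addition, 60 min. EC50 = cpd conc. lowering probe binding.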

[1] = Klebsiella pneumoniae, K. pneumoniae 848844 producing SHV-11 and KPC-2, read-out: MIC K. pneumoniae 848844
[2] = fluorescence polarization competition binding with Bocillin-FL, read-out: E. coli K12 PBP3 Potency

SMILES	MIC (E. coli ATCC 25922)	MIC (N. gonorrhoeae FA1090)	MIC (K. pneumoniae 848844; [1])	MIC (N. gonorrhoeae FA19)	MIC (N. gonorrhoeae WHO F)	EC50 (E. coli PBP3; [2])	EC50 (E. coli PBP3)	MIC (K. pneumoniae 848844; Klebsiella pneumoniae, 848844, read-out: MIC K. pneumoniae 848844)
CCN1CCN(C(=O)NC(C(=O)N[C@H]2Cc3cccc(C(=O)O)c3OB2O)c2csc(N)n2)C(=O)C1=O (stereo partly drawn) [Example 5, (3R)-3-(2-(2-aminothiazol-4-yl)-2-(4-ethyl-2,3-dioxopiperazine-1-carboxamido)acetamido)-2-hydroxy-3,4-dihydro-2H-benzo[e][1,2]oxaborinine-8-carboxylic acid]	8 to 16 µg/mL	< 0.125 µg/mL	32 to 64 µg/mL	1 to 2 µg/mL (≈ 1.89 to 3.77 µM)	< 0.125 µg/mL	–	–	–
CCN1CCN(C(=O)NC(C(=O)N[C@H]2Cc3cccc(C(=O)O)c3OB2O)c2ccc(O)c(O)c2F)C(=O)C1=O (some centres unmarked) [Example 70]	2 to 4 µg/mL	< 0.125 µg/mL	8 to 16 µg/mL	1 to 2 µg/mL (≈ 1.79 to 3.58 µM)	< 0.125 µg/mL	< 30 µM	–	–
CCN1CCN(C(=O)NC(C(=O)N[C@H]2Cc3ccc(F)c(C(=O)O)c3OB2O)c2csc(N)n2)C(=O)C1=O (stereo partly drawn) [Example 109, (3R)-3-(2-(2-aminothiazol-4-yl)-2-(4-ethyl-2,3-dioxopiperazine-1-carboxamido)acetamido)-7-fluoro-2-hydroxy-3,4-dihydro-2H-benzo[e][1,2]oxaborinine-8-carboxylic acid]	8 to 16 µg/mL	0.25 to 0.5 µg/mL (≈ 0.456 to 0.912 µM)	32 to 64 µg/mL	4 to 8 µg/mL (≈ 7.3 to 14.6 µM)	0.25 to 0.5 µg/mL (≈ 0.456 to 0.912 µM)	< 30 µM	–	–
CCN1CCN(C(=O)NC(C(=O)N[C@H]2Cc3cccc(C(=O)O)c3OB2O)c2ccc(B(O)O)cc2)C(=O)C1=O (some centres unmarked) [Example 112]	32 to 64 µg/mL	< 0.125 µg/mL	–	1 to 2 µg/mL (≈ 1.81 to 3.62 µM)	< 0.125 µg/mL	–	30 to 500 µM	> 128 µg/mL
O=C(O)c1cccc2c1OB(O)[C@@H](NC(=O)C(NC(=O)N1CCN(CCF)C(=O)C1=O)c1ccc(B(O)O)cc1)C2 (stereo partly drawn) [Example 113, (3R)-3-(2-(4-boronophenyl)-2-(4-(2-fluoroethyl)-2,3-dioxopiperazine-1-carboxamido)acetamido)-2-hydroxy-3,4-dihydro-2H-benzo[e][1,2]oxaborinine-8-carboxylic acid]	32 to 64 µg/mL	< 0.125 µg/mL	> 128 µg/mL	1 to 2 µg/mL (≈ 1.75 to 3.51 µM)	< 0.125 µg/mL	–	30 to 500 µM	–
CCN1CCN(C(=O)NC(C(=O)N[C@H]2Cc3ccc(F)c(C(=O)O)c3OB2O)c2ccc(O)c(O)c2Cl)C(=O)C1=O (stereo partly drawn) [Example 124, (3R)-3-(2-(2-chloro-3,4-dihydroxyphenyl)-2-(4-ethyl-2,3-dioxopiperazine-1-carboxamido)acetamido)-7-fluoro-2-hydroxy-3,4-dihydro-2H-benzo[e][1,2]oxaborinine-8-carboxylic acid]	8 to 16 µg/mL	1 to 2 µg/mL (≈ 1.69 to 3.37 µM)	> 128 µg/mL	4 to 8 µg/mL (≈ 6.75 to 13.5 µM)	< 0.125 µg/mL	–	30 to 500 µM	–
O=C(O)c1c(F)ccc2c1OB(O)[C@@H](NC(=O)C(NC(=O)N1CCN(CCF)C(=O)C1=O)c1ccc(O)c(O)c1Cl)C2 (some centres unmarked) [Example 131]	2 to 4 µg/mL	0.25 to 0.5 µg/mL (≈ 0.409 to 0.819 µM)	32 to 64 µg/mL	4 to 8 µg/mL (≈ 6.55 to 13.1 µM)	0.25 to 0.5 µg/mL (≈ 0.409 to 0.819 µM)	–	30 to 500 µM	–
CCN1CCN(C(=O)NC(C(=O)N[C@H]2Cc3cccc(C(=O)O)c3OB2O)c2ncc(O)cc2F)C(=O)C1=O (stereo partly drawn) [Example 135, (3R)-3-(2-(4-ethyl-2,3-dioxopiperazine-1-carboxamido)-2-(3-fluoro-5-hydroxypyridin-2-yl)acetamido)-2-hydroxy-3,4-dihydro-2H-benzo[e][1,2]oxaborinine-8-carboxylic acid]	2 to 4 µg/mL	< 0.125 µg/mL	32 to 64 µg/mL	1 to 2 µg/mL (≈ 1.84 to 3.68 µM)	< 0.125 µg/mL	< 30 µM	–	–
CCN1CCN(C(=O)NC(C(=O)N[C@H]2Cc3ccc(F)c(C(=O)O)c3OB2O)c2cc(O)c(O)cc2F)C(=O)C1=O (stereo partly drawn) [Example 136, (3R)-3-(2-(4-ethyl-2,3-dioxopiperazine-1-carboxamido)-2-(2-fluoro-4,5-dihydroxyphenyl)acetamido)-7-fluoro-2-hydroxy-3,4-dihydro-2H-benzo[e][1,2]oxaborinine-8-carboxylic acid]	8 to 16 µg/mL	1 to 2 µg/mL (≈ 1.74 to 3.47 µM)	32 to 64 µg/mL	4 to 8 µg/mL (≈ 6.94 to 13.9 µM)	1 to 2 µg/mL (≈ 1.74 to 3.47 µM)	< 30 µM	–	–
CCN1CCN(C(=O)NC(C(=O)N[C@H]2Cc3ccc(F)c(C(=O)O)c3OB2O)c2ncc(O)cc2F)C(=O)C1=O (stereo partly drawn) [Example 145, (3R)-3-(2-(4-ethyl-2,3-dioxopiperazine-1-carboxamido)-2-(3-fluoro-5-hydroxypyridin-2-yl)acetamido)-7-fluoro-2-hydroxy-3,4-dihydro-2H-benzo[e][1,2]oxaborinine-8-carboxylic acid]	8 to 16 µg/mL	< 0.125 µg/mL	32 to 64 µg/mL	1 to 2 µg/mL (≈ 1.78 to 3.56 µM)	< 0.125 µg/mL	< 30 µM	–	–
CCN1CCN(C(=O)NC(C(=O)N[C@H]2Cc3ccc(F)c(C(=O)O)c3OB2O)c2ccc(O)c(O)c2F)C(=O)C1=O (stereo partly drawn) [Example 149, (3R)-3-(2-(4-ethyl-2,3-dioxopiperazine-1-carboxamido)-2-(2-fluoro-3,4-dihydroxyphenyl)acetamido)-7-fluoro-2-hydroxy-3,4-dihydro-2H-benzo[e][1,2]oxaborinine-8-carboxylic acid]	8 to 16 µg/mL	0.25 to 0.5 µg/mL (≈ 0.434 to 0.868 µM)	2 to 4 µg/mL	1 to 2 µg/mL (≈ 1.74 to 3.47 µM)	< 0.125 µg/mL	–	30 to 500 µM	–
CCN1CCN(C(=O)NC(C(=O)N[C@H]2Cc3cccc(C(=O)O)c3OB2O)c2ncc(O)cc2Cl)C(=O)C1=O (stereo partly drawn) [Example 150, (3R)-3-(2-(4-ethyl-2,3-dioxopiperazine-1-carboxamido)-2-(3-chloro-5-hydroxypyridin-2-yl)acetamido)-2-hydroxy-3,4-dihydro-2H-benzo[e][1,2]oxaborinine-8-carboxylic acid]	32 to 64 µg/mL	0.25 to 0.5 µg/mL (≈ 0.447 to 0.893 µM)	> 128 µg/mL	4 to 8 µg/mL (≈ 7.15 to 14.3 µM)	0.25 to 0.5 µg/mL (≈ 0.447 to 0.893 µM)	< 30 µM	–	–
CCN1CCN(C(=O)NC(C(=O)N[C@H]2Cc3ccc(F)c(C(=O)O)c3OB2O)c2ncc(O)cc2Cl)C(=O)C1=O (stereo partly drawn) [Example 151, (3R)-3-(2-(3-chloro-5-hydroxypyridin-2-yl)-2-(4-ethyl-2,3-dioxopiperazine-1-carboxamido)acetamido)-7-fluoro-2-hydroxy-3,4-dihydro-2H-benzo[e][1,2]oxaborinine-8-carboxylic acid]	> 128 µg/mL	0.25 to 0.5 µg/mL (≈ 0.433 to 0.865 µM)	> 128 µg/mL	4 to 8 µg/mL (≈ 6.92 to 13.8 µM)	< 0.125 µg/mL	< 30 µM	–	–
CCN1CCN(C(=O)N[C@@H](C(=O)N[C@H]2Cc3ccc(F)c(C(=O)O)c3OB2O)c2ccc(O)c(F)c2)C(=O)C1=O [Example 161, (R)-3-((R)-2-(4-ethyl-2,3-dioxopiperazine-1-carboxamido)-2-(3-fluoro-4-hydroxyphenyl)acetamido)-7-fluoro-2-hydroxy-3,4-dihydro-2H-benzo[e][1,2]oxaborinine-8-carboxylic acid]	> 128 µg/mL	< 0.125 µg/mL	> 128 µg/mL	1 to 2 µg/mL (≈ 1.78 to 3.57 µM)	< 0.125 µg/mL	< 30 µM	–	–
CCN1CCN(C(=O)N[C@@H](C(=O)N[C@H]2Cc3cccc(C(=O)O)c3OB2O)c2ncc(O)cc2F)C(=O)C1=O [Example 177, (R)-3-((R)-2-(4-ethyl-2,3-dioxopiperazine-1-carboxamido)-2-(3-fluoro-5-hydroxypyridin-2-yl)acetamido)-2-hydroxy-3,4-dihydro-2H-benzo[e][1,2]oxaborinine-8-carboxylic acid]	8 to 16 µg/mL	< 0.125 µg/mL	32 to 64 µg/mL	4 to 8 µg/mL (≈ 7.36 to 14.7 µM)	< 0.125 µg/mL	< 30 µM	–	–
